Experimental data: patent publication US12357924B2, “Process for producing enriched fraction from Bacopa monnieri extract for management of neurodegenerative disorders” (STAR HI HERBS PVT LTD, priority 2021, dated 2025)

Columns and labels:
[1] = system: locomotor activity of the rats; assay: Actophotometer method (locomotor activity); format: in vivo, Wistar strain rats; conditions: diazepam 1 mg/kg
Procedure: In further embodiment of the present invention the anxiolytic effect of Bacopa monnieri extract Bacosane is determined by employing 4 different tests i.e., the elevated plus maze (EPM) test, open field test (OFT), Astrophotometer test and Light dark transition test. The compounds used in these four tests comprises Bacopa monnieri extract Bacosane; and Diazepam (1 mg/kg, i.p.) which is used as standard anxiolytic agent. The four tests are performed on Wistar strain rats of both sex of weighing 130 to 180 g, which were divided into four groups of six rats each (Group I, Group II, Group III and Group IV)
In this test, the rats are placed in the digital Actophotometer in which a constant beam of light from six lights will be made to fall on corresponding photoelectric cells. The photoelectric cells get activated when an animal crosses the beam of light and thereby cuts off (crossing) the rays of light falling on it. After 1 hour of Bacopa Monnieri extract Bacosane administration the numbers of crossings are counted for a period of 10 minutes by the actophotometer. […]

[2] = system: behavior of rats in elevated plus maze; assay: Elevated plus maze test; format: in vivo, Wistar strain rats; conditions: 5 minutes test; Bacosane 50 and 100 mg/kg p.o., diazepam 1 mg/kg; vs vehicle
Procedure: (§1) In further embodiment of the present invention the anxiolytic effect of Bacopa monnieri extract Bacosane is determined by employing 4 different tests i.e., the elevated plus maze (EPM) test, open field test (OFT), […] test and Light dark transition test. The compounds used in these four tests comprises Bacopa monnieri extract Bacosane; and Diazepam (1 mg/kg, i.p.) which is used as standard anxiolytic agent. The four tests are performed on Wistar strain rats of both sex of weighing 130 to 180 g, which were divided into four groups of six rats each (Group I, Group II, Group III and Group IV)
(§2) Group I vehicle (normal saline) at a dose of 10 ml/kg body weight
(§3) Group II received Bacopa monnieri extract Bacosane, at a dose of 50 mg/kg body weight
(§4) Group III received Bacopa monnieri extract Bacosane, at a dose of 100 mg/kg body weight
(§5) Group IV received standard drug, diazepam 1 mg/kg body weight
FIG. 9 depicts comparison of effect of Bacopa monnieri extract Bacosane and diazepam in behavior of rats in elevated plus maze test. […] The percentage of time spent (duration) in open arms and frequency of open arm entries were counted for a period of 5 minutes. […] The percentage of time spent in the open arms and number of open arm entries were calculated using the formulas [100×open/(open+enclosed)] and (100×open/total entries), respectively.

[3] = system: behavior of rats in open field; assay: Open field test; format: in vivo, Wistar strain rats; conditions: 5 minutes; Diazepam 1 mg/kg, Bacosane 50 mg/kg and 100 mg/kg; vs normal saline
Procedure: as §1, §2, §3, §4, §5
FIG. 11 depicts comparison of effect of Bacopa monnieri extract Bacosane and Diazepam on behavior of rats in open field test. The apparatus comprises a wooden box (60×60×60 cm). The area of the open field was divided into 16 squares (15×15 cm), the four inner squares in the center and 12 squares in the periphery along the walls. The other identical condition comprises of sound attenuated and dark experimental room. […]

MES induced convulsion = assay: Maximal electroshock induced seizures (MES) model; format: in vivo, albino Wister rats
Procedure: (§6) In further embodiment of the present invention the anticonvulsant activity of Bacopa monnieri extract Bacosane is determined using Pentylenetetrazole (PTZ) and the maximal electroshock seizure (MES) models. The analysis is performed on healthy Swiss mice of either sex, weighing about 25-30 g and Wistar rats of either sex, weighing about 150-200 g. The animals were grouped and housed in polyacrylic cages (38×23×10 cm) with not more than six animals per cage and maintained under standard laboratory conditions (temperature 25° C.) with dark and light cycle (12/12 h). All the animals were acclimatized to laboratory condition for a week before commencement of the analysis. The animals were randomly allocated into four groups of six each: Group I (control group), Group II, Group III, Group IV.
Group-I received 10 ml/kg of 1% NaCMC p.o. which served as control.
Group-II received phenytoin sodium (25 mg/kg, orally) as standard controls in MES method and PTZ induced seizures method respectively.
Group-III and IV were administered two graded doses of Bacopa monnieri extract Bacosane i.e., 50 mg/kg and 100 mg/kg, respectively, p.o.
In the above analysis the percentage protection of animals was recorded as percentage of reduction in duration of seizures wherein the control group is assumed as 100%. The observations of group II, III and IV were compared with control Group-I. It is observed that Bacopa monnieri extract Bacosane has potential anticonvulsant activity due to the presence of certain active phytoconstituents. The anticonvulsant activity of Bacopa monnieri extract Bacosane involves GABAergic transmission and glutaminergic transmission or sodium channel blockage. However, it can be considered that the Bacopa monnieri extract Bacosane as a potent anticonvulsant supplement. The analysis and observations of Pentylenetetrazole (PTZ) and the maximal electroshock seizure (MES) models is shown in FIG. 3 to FIG. 6.
FIG. 3 is the graphical representation of effect of Bacopa Monnieri extract Bacosane on tonic extension phase in MES induced convulsion. […]

[4] = system: PTZ induced tonic-clonic convulsions; assay: Pentylenetetrazole (PTZ) induced convulsions model; format: in vivo, rats; conditions: phenytoin sodium 25 mg/kg orally
Procedure: as §6
Group-I received 10 ml/kg of 1% NaCMC p.o. which served as control. […]
In the above analysis the percentage protection of animals was recorded as percentage of reduction in duration of seizures wherein the control group is assumed as 100%. […]
FIG. 5 depicts graphical representation of effect of Bacopa Monnieri extract Bacosane on tonic-clonic convolution in Pentylenetetrazole (PTZ) induced model in rats. […] The onset of convulsions, number of animals that convulsed and number of animals that were protected from clonic convulsions were recorded.

hippocampus = conditions: sub-chronic and chronic administration, 30 mg/kg; cited from earlier work
[5] = DPPH free radical scavenging assay; format: biochemical; conditions: 0.1 mM DPPH in methanol, 30 minutes, absorbance at 517 nm
Procedure: The free radical scavenging activity of Bacopa monnieri extract Bacosane and BHT is determined through the process comprising steps of: preparing solution of 0.1 mM DPPH in methanol, and 1.5 mL of this solution was mixed with 1.5 mL of extract in methanol at different concentrations (50, 100, 150, 200 and 250 m/mL); and measuring the absorbance at 517 nm, after leaving the above mixture for 30 minutes of incubation at dark room. Butylated hydroxytoluene (BHT) was used as the reference standard at different concentrations (20, 40, 60, 80 and 100 m/m1). The radical scavenging activity of DPPH was calculated using the following equation: [A0-A1)/A0]×100 where A0 is the absorbance of the control, and A1 is the absorbance of the standard. Then the percentage (%) of inhibition was plotted against concentration of the Bacopa monnieri extract Bacosane and BHT, and from the graph as shown in FIGS. 7A-7B half-maximal inhibitory concentration (IC50) was calculated to determine the efficacy of Bacopa monnieri extract Bacosane in comparison to standard butylated hydroxytoluene (BHT).

## CN1C(=O)CN=C(c2ccccc2)c2cc(Cl)ccc21 [Diazepam]
[1]
  number of crossings of light beams compared to control group: significantly reduced
[2]
  closed arm number of entries and time spent: significantly decreased
  percentage of number of open arm entries and time spent in open arm: significant increase
[3]
  anxiolysis (increased ambulation, rearing and preening, decreased defecations): significantly exhibited anxiolysis

## O=C1NC(=O)C(c2ccccc2)(c2ccccc2)N1 [Phenytoin, phenytoin sodium]
MES induced convulsion; MES model, compared to control group
  hind limb tonic extension: decreased
MES induced convulsion; MES model, phenytoin sodium 25 mg/kg orally
  extensor phase: abolished the extensor phase completely
MES induced convulsion; phenytoin sodium 25 mg/kg orally
  protection in animals against MES: 100%
[4]; PTZ 90 mg/kg i.p., Bacosane 50 and 100 mg/kg orally
  anticonvulsant effect (latency, onset of clonic convulsions, onset of tonic seizures): significantly anticonvulsant activity
[4]; PTZ model
  protection: 100%

## C[C@H]1[C@H](C)CC[C@]2(C(=O)O)CC[C@]3(C)C(=CC[C@@H]4[C@@]5(C)C[C@@H](O)[C@H](O)[C@@](C)(CO)[C@@H]5CC[C@]43C)[C@H]12 [asiatic acid]
hippocampus
  cell proliferation in the hippocampus: increase
  spatial working memory: stimulate

## Cc1cc(C(C)(C)C)c(O)c(C(C)(C)C)c1 [butylated hydroxytoluene (BHT), butylated hydroxytoluene]
[5]
  half-maximal inhibitory concentration (IC50), DPPH free radical scavenging: 150.50 µg/mL
